Test results as given in patent US20230181564A1, “Potent Tetrahydroquinolone Eliminates Apicomplexan Parasites” (The University of Chicago, priority 2020, published 2023).
In brackets after ≈: the same amount, converted by molar mass.

Assays:
[1] = test system: T. gondii (Prugneaud strain expressing luciferase) tachyzoites; test: Acute infection with Prugneaud luciferase tachyzoites in Balb/C mice (IVIS, brain cysts); assay type: in vivo, Toxoplasma gondii
Method: IVIS. Balb/C mice were infected intraperitoneally (IP) with 20×10^3 T. gondii (Prugneaud strain expressing luciferase) tachyzoites. Treatment began 2 hours later with JAG21 (5 mg/kg) which was dissolved in DMSO, administered IP in a total volume of 0.05 ml. Mice were imaged every second day starting on day 4 post infection using an IVIS Spectrum (Caliper Life Sciences) for […], with medium binning, 20 minutes post injection with 150 mg/kg of D-luciferin potassium salt solution.
Brain cysts. Brain cysts were searched for in paraffin imbedded tissue of the surviving Prugneaud strain infected treated Balb/C mice in the IVIS study, 30 days after infection which was 16 days after treatment had been discontinued. All treated mice had survived. There were no surviving untreated mice in those experiments.

[2] = biological target: T1, bovine cytochrome bc1 (Bos taurus, UniProt P00157); test: Bovine cytochrome bc1 activity assay; assay type: biochemical; conditions: read-out: Inhibition of bovine Cytbc1 activity
T1 construct: Whole fresh bovine heart was collected after slaughter; from tissue; host or cells: bovine heart mitochondria; DDM-solubilised, DEAE-Sepharose, Sephacryl S-300, PEG fractionation
Method: Bovine cytochrome bc1 activity assays. Bovine cytochrome bc, inhibition assay was carried out in 50 mM KPi pH 7.5, 2 mM EDTA, 10 mM KCN, 30 μM equine heart cytochrome c (Sigma Aldrich), and 2.5 nM bovine cytochrome bc, at room temperature. 20 mM inhibitors dissolved in DMSO were added to the assay at a desired concentration without prior incubation. […] The reaction was initiated by the addition of 50 μM decylubiquinol (Abcam). The reduced cytochrome c was monitored by the different absorption between 550 and 542 nm using extinction coefficient of 18.1 mM^−1 cm^−1 in a SPECTRAmax Plus 384 UV-visible Spectrometer. The initial kinetic rate is determined as a zero-order reaction and used as the specific activity of cytochrome bc1.

[3] = Kinetic/aqueous solubility in PBS pH 7.4; assay type: physicochemical
Method: PBS Sol/Toxicity pH7.4 refers to solubility of the compound in Phosphate Buffered Saline (PBS) at pH7.4. […] Parasites were RH-YFP expressing tachyzoites (Tachy) and EGS (Brady) strains. Studies of effects of inhibitors on HFF or on T.gondii tachyzoites were performed with triplicate wells in at least two biological replicate experiments. Studies of effects on bradyzoites were performed at least twice in at least two biological replicate experiments. Compounds with much less inhibition of mammalian than T. gondii cytochrome bc in the saffarine enzyme assay (indicated by **) provide potential to further develop compounds, if unanticipated toxicity occurs from JAG21.
Structure Activity Relationship (SAR) and comparison of effect on T.gondii and HFF enzyme activity. […] The MDCK-MDR1 Permeability Assay was also performed. […] These were measured by Chem Partners.

[4] = test system: T. gondii EGS strain bradyzoites; test: In vitro challenge assay for EGS strain bradyzoites in HFF; assay type: cell-based, Toxoplasma gondii; conditions: 500 nM
Method: PBS Sol/Toxicity pH7.4 refers to solubility of the compound in Phosphate Buffered Saline (PBS) at pH7.4. […] Tachy/Brady IC50 was determined in studies in which cultures of parasites in HFF were treated with varying concentrations of the compound and there was 50% inhibition of the replication (number) of parasites. Parasites were RH-YFP expressing tachyzoites (Tachy) and EGS (Brady) strains. Studies of effects of inhibitors on HFF or on T.gondii tachyzoites were performed with triplicate wells in at least two biological replicate experiments. Studies of effects on bradyzoites were performed at least twice in at least two biological replicate experiments. Compounds with much less inhibition of mammalian than T. gondii cytochrome bc in the saffarine enzyme assay (indicated by **) provide potential to further develop compounds, if unanticipated toxicity occurs from JAG21. […]
Cells were fixed using 4% paraformaldehyde and stained with Fluorescein-labeled Dolichos Biflorus Agglutinin, DAPI, and BAG1. […] Effects of compounds were quantitated by counting cysts in controls and treated cultures. Dolichos staining delimited structures and single organisms that remained were counted in a representative field of view. This was then multiplied by a factor determined by the total area of the cover slip in order to estimate the number of cysts and organisms in each condition. […]

[5] = test system: T. gondii ΔRPS13; test: ΔRPS13 infection of interferon receptor knockout mice; assay type: in vivo, Toxoplasma gondii; conditions: 100,000 ΔRPS13; TAF day -1, JAG21 14 days, then tetracycline; vs either alone; not durable
From the text: RPS13 Δ In vivo. This G1 arrested parasite persists in tissue culture for prolonged times in the absence of tetracycline (Hutson et al 2010), but in immune competent mice it cannot be rescued with teteracycline, or LNAME (L-N^G-Nitro arginine methyl ester, an analog of arginine) used as an antagonist of nitric oxide synthase (NOS) that inhibits NO production, or both together (Hutson et al. 2010).
In pilot studies, herein, interferon α receptor knockout mice that were not treated were observed following infection. At 7 and at 14 days following infection, spleen and liver were removed and immune peroxidase stained. At 14 days a group of mice were treated with anhydrotetracycline and when a subset of these mice died their spleen and liver were removed and immune peroxidase stained.
As in the pilot studies, this RPS13 Δ parasite also was used to infect interferon α receptor knockout mice in a treatment study. In this separate study, groups of mice were infected with RPS13 Δ. […] At the time they appeared to have substantial illness or at the termination of the experiment they were euthanized, tissues fixed in formalin and stained with hematoxylin and eosin or immunoperoxidase stained and parasite burden was assessed.

Cc1[nH]c2c(c(=O)c1-c1ccc(Oc3ccc(OC(F)(F)F)cc3)cc1)CCCC2 [JAG021, 2-methyl-3-(4-(4-(trifluoromethoxy)phenoxy)phenyl)-5,6,7,8-tetrahydroquinolin-4-one]
Luciferase tachyzoites in luminescence studies ([1]; 5 mg/kg/day IP): eliminates illness and T. gondii Type II Prugneaud luciferase tachyzoites completely | Cysts in brains ([1]; 5 mg/kg/day for 14 days from start of infection, brains evaluated at 30 days): no cysts being found | Survival of infected mice ([1]; Balb/C mice, JAG21 5 mg/kg IP for 14 days): 100% | inhibition at 0.1 µM ([2]; 0.1 μM): 36% | inhibition at 1 µM ([2]; 1 μM): 63% | solubility ([3]; amorphous compounds): 7 µM (≈ 2.91 µg/mL) | Solubility of the microcrystalline form ([3]; microcrystalline form): 3.5 µM | PBS Sol pH7.4 ([3]; solubility in Phosphate Buffered Saline pH 7.4, first value of cell): 7.07 μM | EGS bradyzoites in treated cultures [4]: not seen | Survival time, JAG21 combined with tafenoquine [5]: improved time of survival
